From patent US20260159512A1, “BCAT2 INHIBITORS” (AGIOS PHARMACEUTICALS, INC., priority 2021, published 2026)

Tests used:
Conditions in all cases: average where tested multiple times
[1] = target: T1, BCAT2 (Homo sapiens, UniProt O15382); test: BCAT2 in vitro enzyme inhibition assay (resazurin/diaphorase-coupled fluorescence); type: biochemical
T1 sequence (O15382 28-392): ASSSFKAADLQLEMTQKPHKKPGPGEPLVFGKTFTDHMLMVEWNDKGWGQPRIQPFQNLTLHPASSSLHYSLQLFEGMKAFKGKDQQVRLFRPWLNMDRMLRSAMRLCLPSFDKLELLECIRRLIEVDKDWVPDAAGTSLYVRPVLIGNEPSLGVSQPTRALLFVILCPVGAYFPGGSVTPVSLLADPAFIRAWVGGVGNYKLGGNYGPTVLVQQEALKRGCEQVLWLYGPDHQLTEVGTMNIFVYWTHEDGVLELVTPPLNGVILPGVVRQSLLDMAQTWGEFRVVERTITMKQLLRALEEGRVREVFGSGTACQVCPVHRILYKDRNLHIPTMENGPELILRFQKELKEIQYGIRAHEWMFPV
Procedure, shortened: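 Coupled fluorescence readout: glutamate formed from L-leucine/α-ketoglutarate transamination drives GDH/NAD/diaphorase reduction of resazurin (Ex 540/Em 590). Human BCAT2 was first exposed 1 h at room temperature to compound, top final 100 μM in 3-fold, 10-point series; substrate reaction ran 1 h before SDS quench, in technical duplicate with DMSO max and enzyme-free min controls.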

[2] = target: T2, hBCAT1 (Homo sapiens, UniProt P54687); test: BCAT1 in vitro enzyme inhibition assay (resazurin/diaphorase-coupled fluorescence); type: biochemical
T2 sequence (P54687 1-386): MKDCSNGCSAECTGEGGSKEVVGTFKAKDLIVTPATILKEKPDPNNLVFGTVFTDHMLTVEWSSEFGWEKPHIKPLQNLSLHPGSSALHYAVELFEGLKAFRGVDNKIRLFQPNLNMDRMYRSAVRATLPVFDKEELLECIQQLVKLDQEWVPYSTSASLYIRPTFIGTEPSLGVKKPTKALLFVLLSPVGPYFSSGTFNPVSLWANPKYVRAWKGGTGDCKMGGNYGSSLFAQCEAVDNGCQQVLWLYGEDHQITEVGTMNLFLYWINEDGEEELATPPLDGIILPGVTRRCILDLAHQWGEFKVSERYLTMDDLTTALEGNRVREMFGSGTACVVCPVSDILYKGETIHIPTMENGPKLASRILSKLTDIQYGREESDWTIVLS
Procedure, shortened: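 Human BCAT1 activity read by resazurin/diaphorase-coupled fluorescence. Compounds added from 50× DMSO stocks at 1:50, giving 10-point 3-fold titrations from 100 μM top final concentration. Run in technical duplicate; repeat tests averaged.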

[3] = target: T1, BCAT2; test: BCAT2 in vitro cell inhibition using engineered A549 cells (KMV cell assay, 13C6-KMV by LC-MS/MS); type: cell-based; design: The result was an engineered A549 cell line that expressed endogenous BCAT2; endogenous in cells; host or cells: A549 cells with MUT and BCAT1 knocked out by CRISPR/CAS9; key to BCAT2 Cell Inhibition: A: less than or equal to 0.100 μM; B: greater than 0.100 and less than or equal to 0.500 μM; C: greater than 0.500 and less than or equal to 1.000 μM; d: greater than 1.000 μM; E: no fit

Structure (SMILES)	IC50 [1]	IC50 [2]	IC50 [3]	BCAT2 Cell Inhibition [3]
O=C(N[C@H]1CCC[C@@H](n2c(C3COCCO3)nc3cnc(-c4nc[nH]n4)cc32)C1)c1ncc(Cl)s1 (single isomer, unassigned) [Example 176]	100 to 500 nM	1000 to 5000 nM	> 1000 nM	–
CC(C)Cc1nc2cnc(-n3cc(CO)nn3)cc2n1[C@@H]1CCC[C@H](NC(=O)c2ncc(Cl)s2)C1 [Example 346, 5-chloro-N-((1S,3R)-3-(6-(4-(hydroxymethyl)-1H-1,2,3-triazol-1-yl)-2-isobutyl-1H-imidazo[4,5-c]pyridin-1-yl)cyclohexyl)thiazole-2-carboxamide]	100 to 500 nM	> 5000 nM	> 1000 nM	–
Cc1nc2cnc(-n3ccnn3)cc2n1[C@@H]1CCC[C@H](NC(=O)c2ccc(Br)s2)C1 [Example 52, 5-bromo-N-((1S,3R)-3-(2-methyl-6-(1H-1,2,3-triazol-1-yl)-1H-imidazo[4,5-c]pyridin-1-yl)cyclohexyl)thiophene-2-carboxamide]	> 1000 nM	> 5000 nM	–	E
CO[C@H]1C[C@@H](NC(=O)c2ncc(Cl)s2)C[C@@H](n2c(-c3ccccc3F)nc3cnc(-c4nc[nH]n4)cc32)C1 (stereo in doubt) [Example 420, 5-chloro-N-((1S,3R,5S)-3-(2-(2-fluorophenyl)-6-(1H-1,2,4-triazol-3-yl)-1H-imidazo[4,5-c]pyridin-1-yl)-5-methoxycyclohexyl)thiazole-2-carboxamide]	≤ 100 nM	< 500 nM	≤ 100 nM	–
Cc1coc(-c2cc3c(cn2)nc(-c2ccccn2)n3[C@@H]2CCC[C@H](NC(=O)c3ccc(Br)s3)C2)n1 [Example 31, 5-bromo-N-((1S,3R)-3-(6-(4-methyloxazol-2-yl)-2-(pyridin-2-yl)-1H-imidazo[4,5-c]pyridin-1-yl)cyclohexyl)thiophene-2-carboxamide]	≤ 100 nM	< 500 nM	≤ 100 nM	–
Cc1cnn(-c2cc3c(cn2)nc(CC(C)C)n3[C@@H]2CCC[C@H](NC(=O)c3ncc(Cl)s3)[C@H]2O)n1 [Example 243, 5-chloro-N-((1S,2R,3R)-2-hydroxy-3-(2-isobutyl-6-(4-methyl-2H-1,2,3-triazol-2-yl)-1H-imidazo[4,5-c]pyridin-1-yl)cyclohexyl)thiazole-2-carboxamide]	≤ 100 nM	< 500 nM	≤ 100 nM	–
O=C(N[C@H]1CCC[C@@H](n2c(-c3ncccc3F)nc3cnc(-n4ccnn4)cc32)C1)c1ncc(C(F)F)s1 [Example 37, 5-(difluoromethyl)-N-((1S,3R)-3-(2-(3-fluoropyridin-2-yl)-6-(1H-1,2,3-triazol-1-yl)-1H-imidazo[4,5-c]pyridin-1-yl)cyclohexyl)thiazole-2-carboxamide]	100 to 500 nM	1000 to 5000 nM	> 1000 nM	–
O=C(N[C@H]1CCC[C@@H](n2c(-c3ccccc3F)nc3cnc(-c4ccccn4)cc32)C1)c1ncc(Cl)s1 [Example 104, 5-chloro-N-((1S,3R)-3-(2-(2-fluorophenyl)-6-(pyridin-2-yl)-1H-imidazo[4,5-c]pyridin-1-yl)cyclohexyl)thiazole-2-carboxamide]	≤ 100 nM	< 500 nM	≤ 100 nM	–
O=C(NC1CCCC(n2c(-c3ccccn3)nc3cnc(-c4cnco4)cc32)C1)c1ccc(Br)s1 (stereo not drawn) [Example 3, 5-bromo-N-(3-(6-(oxazol-5-yl)-2-(pyridin-2-yl)-1H-imidazo[4,5-c]pyridin-1-yl)cyclohexyl)thiophene-2-carboxamide]	≤ 100 nM	1000 to 5000 nM	100 to 500 nM	–

The remaining lines, values ahead:

IC50 [1]	IC50 [2]	IC50 [3]	BCAT2 Cell Inhibition [3]	Structure (SMILES)
≤ 100 nM	< 500 nM	≤ 100 nM	–	CO[C@@H]1C[C@@H](NC(=O)c2ncc(Cl)s2)C[C@@H](n2c(-c3ccccc3F)nc3cnc(-n4nccn4)cc32)C1 (stereo in doubt) [Example 424, 5-chloro-N-((1S,3R,5R)-3-(2-(2-fluorophenyl)-6-(2H-1,2,3-triazol-2-yl)-1H-imidazo[4,5-c]pyridin-1-yl)-5-methoxycyclohexyl)thiazole-2-carboxamide]
≤ 100 nM	< 500 nM	100 to 500 nM	–	CC1(O)[C@@H](NC(=O)c2ncc(Cl)s2)CCC[C@H]1n1c(-c2ccccc2F)nc2cnc(-c3nc[nH]n3)cc21 (single isomer, unassigned) [Example 233]
≤ 100 nM	< 500 nM	≤ 100 nM	–	O=C(N[C@H]1CCC[C@@H](n2c(-c3ccccc3F)nc3cnc(-c4ncccc4F)cc32)C1)c1ncc(Cl)s1 [Example 169, 5-chloro-N-((1S,3R)-3-(2-(2-fluorophenyl)-6-(3-fluoropyridin-2-yl)-1H-imidazo[4,5-c]pyridin-1-yl)cyclohexyl)thiazole-2-carboxamide]
≤ 100 nM	1000 to 5000 nM	500 to 1000 nM	–	O=C(N[C@H]1CCC[C@@H](n2c(-c3ccccn3)nc3cnc(-n4cccn4)cc32)C1)c1ccc(Br)s1 [Example 30, N-((1S,3R)-3-(6-(1H-pyrazol-1-yl)-2-(pyridin-2-yl)-1H-imidazo[4,5-c]pyridin-1-yl)cyclohexyl)-5-bromothiophene-2-carboxamide]
≤ 100 nM	500 to 1000 nM	100 to 500 nM	–	O=C(N[C@H]1CCC[C@@H](n2c(COC(F)(F)F)nc3cnc(-n4nccn4)cc32)C1)c1ncc(Cl)s1 [Example 315, N-((1S,3R)-3-(6-(2H-1,2,3-triazol-2-yl)-2-((trifluoromethoxy)methyl)-1H-imidazo[4,5-c]pyridin-1-yl)cyclohexyl)-5-chlorothiazole-2-carboxamide]
≤ 100 nM	500 to 1000 nM	100 to 500 nM	–	CC(C)(F)Cc1nc2cnc(-c3ccccn3)cc2n1[C@@H]1CCC[C@H](NC(=O)c2ncc(Cl)s2)C1 [Example 302, 5-chloro-N-((1S,3R)-3-(2-(2-fluoro-2-methylpropyl)-6-(pyridin-2-yl)-1H-imidazo[4,5-c]pyridin-1-yl)cyclohexyl)thiazole-2-carboxamide]
≤ 100 nM	< 500 nM	–	E	O=C(N[C@H]1CCC[C@@H](n2c(-c3ccccn3)nc3cnc(-c4nn[nH]n4)cc32)C1)c1ncc(C(F)F)s1 [Example 50, 5-(difluoromethyl)-N-((1S,3R)-3-(2-(pyridin-2-yl)-6-(2H-tetrazol-5-yl)-1H-imidazo[4,5-c]pyridin-1-yl)cyclohexyl)thiazole-2-carboxamide]
≤ 100 nM	< 500 nM	≤ 100 nM	–	CC(=O)N1C[C@H](NC(=O)c2ncc(C(F)F)s2)C[C@H](n2c(-c3ccccc3F)nc3cnc(-c4ncco4)cc32)C1 [Example 128, N-((3R,5S)-1-acetyl-5-(2-(2-fluorophenyl)-6-(oxazol-2-yl)-1H-imidazo[4,5-c]pyridin-1-yl)piperidin-3-yl)-5-(difluoromethyl)thiazole-2-carboxamide]
≤ 100 nM	< 500 nM	≤ 100 nM	–	Nc1cccc(-c2cc3c(cn2)nc(-c2ccccc2F)n3[C@@H]2CCC[C@H](NC(=O)c3ncc(Cl)s3)C2)n1 [Example 105, N-((1S,3R)-3-(6-(6-aminopyridin-2-yl)-2-(2-fluorophenyl)-1H-imidazo[4,5-c]pyridin-1-yl)cyclohexyl)-5-chlorothiazole-2-carboxamide]
≤ 100 nM	500 to 1000 nM	≤ 100 nM	–	CO[C@H]1C[C@H](NC(=O)c2ncc(Cl)s2)C[C@H](n2c(-c3ccccc3F)nc3cnc(N4CCC[C@H]4CO)cc32)C1 [Example 429, 5-chloro-N-((1R,3S,5S)-3-(2-(2-fluorophenyl)-6-((S)-2-(hydroxymethyl)pyrrolidin-1-yl)-1H-imidazo[4,5-c]pyridin-1-yl)-5-methoxycyclohexyl)thiazole-2-carboxamide]
≤ 100 nM	< 500 nM	≤ 100 nM	–	O=C(N[C@H]1CCC[C@@H](n2c(-c3ccccc3F)nc3cnc(-n4nccn4)cc32)[C@@H]1O)c1ncc(Cl)s1 (single isomer, unassigned) [Example 113]
